Results: patent publication US10414771B2, “Compounds useful for inhibiting metastasis from cancer and methods using same” (Drexel University, priority 2010, dated 2019)
“And” between values parts separate entries of the source, which are not always exact repeats. Equal entries are not always repeated. Where two headings read alike, the source gives them in different places. Each block holds one molecule with its values, some of them ahead of it.

What was measured:
Assay type in all cases: cell-based
[1] = target: T1, CX3CR1 (Homo sapiens, UniProt P49238); test: Inhibition of FKN-induced ERK phosphorylation in MDA-436 breast cancer cells over-expressing CX3CR1 (Western blot); design: expressed in transfected cells; host or cells: MDA-MB-436 human breast cancer cells; conditions: for inhibition of ERK phosphorylation induced by FKN: compound at 10 μM, incubated 30 minutes, MDA-436 cells over-expressing CX3CR1, 50 nM FKN for 5 minutes
T1 sequence (P49238 1-355): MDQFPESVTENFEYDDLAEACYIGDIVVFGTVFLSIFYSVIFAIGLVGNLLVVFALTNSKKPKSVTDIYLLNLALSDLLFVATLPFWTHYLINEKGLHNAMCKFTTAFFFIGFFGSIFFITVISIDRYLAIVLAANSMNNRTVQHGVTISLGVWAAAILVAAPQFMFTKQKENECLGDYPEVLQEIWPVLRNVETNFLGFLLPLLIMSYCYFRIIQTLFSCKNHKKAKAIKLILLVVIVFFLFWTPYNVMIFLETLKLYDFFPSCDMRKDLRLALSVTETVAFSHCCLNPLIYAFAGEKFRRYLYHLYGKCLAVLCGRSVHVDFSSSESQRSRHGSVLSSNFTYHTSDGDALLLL
Method: Cells were serum starved for 4 hours and then exposed to 50 nM recombinant human FKN (R&D systems, Minneapolis, Minn.) for indicated time points.
(§1) Cell lysates were obtained and SDS-polyacrylamide gel electrophoresis and western blot analysis were performed as previously described (Shulby et al., 2004, Cancer Res. 64:4393-98), with few modifications. Membranes were probed with an antibody against CX3CR1 (0.5 μg/ml, Torrey Pines Biolabs, East Orange, N.J.) and actin (Sigma, St. Louis, Mo.) using 5% milk as a blocking reagent. Membranes were also probed with antibodies targeting phospho-p44/42 MAPK (Thr202/Tyr204, Cell Signaling) and total p44/42 MAPK (Cell Signaling). All primary antibody incubations were performed overnight at 4° C. Primary antibody binding was detected using horseradish peroxidase-conjugated anti-rabbit secondary antibody (Pierce, Rockford, Ill.). Chemiluminescent signals were obtained using SuperSignal West Femto reagents (Pierce) and detected with the Fluorochem 8900 imaging system and relative software (Alpha Innotech, San Leandro, Calif.).
Compound 1 was then evaluated for its ability to inhibit the activation of downstream intracellular pathways by CX3CR1 upon stimulation with soluble FKN. In these experiments, MDA-MB 436 human breast cancer cells, engineered to over-express CX3CR1, were treated with 50 nM FKN for 5 minutes after being incubated with compound 1 for 30 minutes.

[2] = tested on: p-ERK1/2; test: p-ERK1/2 inhibition by Western blot analysis
Method: as §1

[3] = target: T1, CX3CR1; test: Calcium mobilization (Ca2+) assay, antagonist mode (CX3CL1 at EC80), HEK293T cells stably expressing human CX3CR1; design: Expression vector containing full-length human CX3CR1 cDNA; host or cells: HEK293T; conditions: for % Increase in RFU / RFU: antagonist mode
Method: (§2) Cells: Mammalian HEK293T cells stably expressing human CX3CR1 (Multispan, Hayward, Calif.)—Host cell: HEK293T; Transfection: Expression vector containing full-length human CX3CR1 cDNA (GenBank Accession Number NM_001337) with FLAG tag sequence at N-terminus; Propagation Medium: DMEM, 10% FBS, 1 μg/mL puromycin.
(§3) Compounds were reconstituted in DMSO at 10 mM. Control agonist CX3CL1 was from Peprotech (Cat #300-31).
(§4) Calcium assay: Cells expressing the CX3CR1 receptor were transiently transfected with the chimeric G protein Gαqi5 and seeded in 384-well plates at appropriate densities and cultured overnight. Calcium assays were conducted according to the manufacturer's protocols. The calcium dye loading buffer was added to the cells and incubated for one hour at 37° C. Calcium flux was monitored for 90 seconds with compound injected into the wells at 20th second. In antagonist mode, carrier or compounds were preincubated with the cells for 30 minutes before calcium flux measurement with the control agonist at EC80 concentration (0.04 μM).
(§5) Data analysis: Calcium assay results were expressed as “RFU” and “% Increase in RFU” (FIG. 17). Data were represented in Mean±SEM. Dose-response curves were fitted using “Sigmoidal dose-response (variable slope)” function in Prism 4 without constraint. EC50, EC80 and IC50 values were derived from “% Increase in RFU”.

[4] = target: T1, CX3CR1; test: Calcium mobilization (Ca2+) assay, agonist mode, HEK293T cells stably expressing human CX3CR1; design: Expression vector containing full-length human CX3CR1 cDNA; host or cells: HEK293T; conditions: for stimulation of calcium flux (agonist activity): HEK293T cells expressing human CX3CR1
Method: as §2, §3, §4, §5

[5] = CX3CL1 at EC80 (0.04 μM), Log [Compounds] M −4.5, listed as JMS-16
[6] = CX3CL1 at EC80 (0.04 μM), Log [Compounds] M −4.8, listed as JMS-16
[7] = CX3CL1 at EC80 (0.04 μM), Log [Compounds] M −5.1, listed as JMS-16
[8] = CX3CL1 at EC80 (0.04 μM), Log [Compounds] M −5.4, listed as JMS-16
[9] = CX3CL1 at EC80 (0.04 μM), Log [Compounds] M −5.7, listed as JMS-16
[10] = CX3CL1 at EC80 (0.04 μM), Log [Compounds] M −6.0, listed as JMS-16
[11] = CX3CL1 at EC80 (0.04 μM), Log [Compounds] M −6.3, listed as JMS-16
[12] = CX3CL1 at EC80 (0.04 μM), Log [Compounds] M −6.6, listed as JMS-16
[13] = agonist mode, Log [Compounds] M −4.5, listed as JMS-16
[14] = agonist mode, Log [Compounds] M −4.8, listed as JMS-16
[15] = agonist mode, Log [Compounds] M −5.1, listed as JMS-16
[16] = agonist mode, Log [Compounds] M −5.4, listed as JMS-16
[17] = agonist mode, Log [Compounds] M −5.7, listed as JMS-16
[18] = agonist mode, Log [Compounds] M −6.0, listed as JMS-16
[19] = agonist mode, Log [Compounds] M −6.3, listed as JMS-16
[20] = agonist mode, Log [Compounds] M −6.6, listed as JMS-16
[21] = EC80 CX3CL1 (0.04 μM) alone, no test compound
[22] = control agonist, Log [CX3CL1] M −6.7
[23] = control agonist, Log [CX3CL1] M −7.2
[24] = control agonist, Log [CX3CL1] M −7.7
[25] = control agonist, Log [CX3CL1] M −8.1
[26] = control agonist, Log [CX3CL1] M −8.6
[27] = control agonist, Log [CX3CL1] M −9.1
[28] = control agonist, Log [CX3CL1] M −9.6
[29] = control agonist, Log [CX3CL1] M −10.0

Molecule: N#CC(CCCN1CCC(O)(c2ccc(Cl)cc2)CC1)(c1ccccc1)c1ccccc1 [Compound 1, 5-(4-(4-chlorophenyl)-4-hydroxypiperidin-1-yl)-2,2-diphenylpentanenitrile]
CX3CR1 antagonism (in words) [1]: weakly potent | inhibition of ERK phosphorylation induced by FKN [1]: inhibits ERK phosphorylation | inhibition of ERK phosphorylation induced by FKN ([1]; listed as compound 1): able to inhibit the activation of the MAPK pathway | CX3CR1 antagonism (in words) ([1]; listed as compound 1): weak CX3CR1 antagonism

Molecule: O=c1c2cccn2c2ccccc2n1CCCN1CCC(O)(c2ccc(Cl)cc2)CC1 [Compound 3, 5-(3-(4-(4-chlorophenyl)-4-hydroxypiperidin-1-yl)propyl)pyrrolo[1,2-a]quinoxalin-4(5H)-one]
EC50 [2]: ~0.01 µM | IC50 ([3]; 30 min preincubation, CX3CL1 at EC80 (0.04 μM), read-out: IC50, inhibition of CX3CL1-evoked calcium flux): 21 µM | % Increase in RFU [3, 5]: 4.4% and 3.5% and 2.2% | RFU [3, 5]: 1.2 RFU and 0.9 RFU and 0.6 RFU | % Increase in RFU [3, 6]: 27.9% and 23.6% and 26.7% | RFU [3, 6]: 9.5 RFU and 7.6 RFU and 8.5 RFU | % Increase in RFU [3, 7]: 45.0% and 38.6% and 38.7% | RFU [3, 7]: 15.0 RFU and 13.0 RFU and 12.3 RFU | % Increase in RFU [3, 8]: 52.1% and 45.7% and 41.1% | RFU [3, 8]: 15.5 RFU and 14.4 RFU and 13.5 RFU | % Increase in RFU [3, 9]: 48.9% and 53.1% and 47.0% | RFU [3, 9]: 15.6 RFU and 17.9 RFU and 14.4 RFU | % Increase in RFU [3, 10]: 58.1% and 54.8% and 53.3% | RFU [3, 10]: 18.4 RFU and 18.6 RFU and 18.2 RFU | % Increase in RFU [3, 11]: 46.4% and 46.2% and 42.0% | RFU [3, 11]: 15.7 RFU and 14.6 RFU and 14.5 RFU | % Increase in RFU [3, 12]: 45.9% and 41.3% and 44.0% | RFU [3, 12]: 13.6 RFU and 14.0 RFU and 14.4 RFU | stimulation of calcium flux (agonist activity) [4]: agonist activity at the two highest concentrations | % Increase in RFU [4, 13]: 127.9% and 118.0% and 112.4% | RFU [4, 13]: 31.7 RFU and 30.7 RFU and 29.0 RFU | % Increase in RFU [4, 14]: 80.2% and 85.0% and 84.7% | RFU [4, 14]: 22.1 RFU and 22.5 RFU and 23.3 RFU | % Increase in RFU [4, 15]: 60.1% and 70.3% and 64.9% | RFU [4, 15]: 16.5 RFU and 20.3 RFU and 18.8 RFU | % Increase in RFU [4, 16]: 61.1% and 62.3% and 60.5% | RFU [4, 16]: 15.5 RFU and 16.9 RFU and 17.1 RFU | % Increase in RFU [4, 17]: 57.2% and 61.7% and 60.7% | RFU [4, 17]: 15.2 RFU and 17.8 RFU and 17.1 RFU | % Increase in RFU [4, 18]: 58.3% and 63.2% and 63.0% | RFU [4, 18]: 15.6 RFU and 18.7 RFU and 18.6 RFU | % Increase in RFU [4, 19]: 59.0% and 66.2% and 61.9% | RFU [4, 19]: 16.0 RFU and 18.2 RFU and 19.5 RFU | % Increase in RFU [4, 20]: 61.6% and 62.1% and 60.1% | RFU [4, 20]: 15.5 RFU and 18.6 RFU and 17.8 RFU

% Increase in RFU [3, 21]: 45.9% and 37.2% and 45.8% | RFU [3, 21]: 16.0 RFU and 10.9 RFU and 15.8 RFU | % Increase in RFU [4, 22]: 59.0% and 61.1% | RFU [4, 22]: 22.2 RFU and 22.7 RFU | % Increase in RFU [4, 23]: 59.9% and 52.7% | RFU [4, 23]: 21.4 RFU and 20.1 RFU | % Increase in RFU [4, 24]: 42.3% and 35.6% | RFU [4, 24]: 15.5 RFU and 12.4 RFU | % Increase in RFU [4, 25]: 25.3% and 14.3% | RFU [4, 25]: 9.3 RFU and 4.8 RFU | % Increase in RFU [4, 26]: 9.6% and 11.8% | RFU [4, 26]: 3.3 RFU and 4.0 RFU | % Increase in RFU [4, 27]: 12.2% and 11.0% | RFU [4, 27]: 4.4 RFU and 4.1 RFU | % Increase in RFU [4, 28]: 8.3% and 5.1% | RFU [4, 28]: 2.9 RFU and 1.9 RFU | % Increase in RFU [4, 29]: 7.6% and 4.7% | RFU [4, 29]: 2.6 RFU and 1.6 RFU
B1: CX3CL1: Control agonist CX3CL1 from Peprotech; chemokine ligand of CX3CR1, also called fractalkine or FKN (protein, listed as Homo sapiens)
chain: MAPISLSWLLRLATFCHLTVLLAGQHHGVTKCNITCSKMTSKIPVALLIHYQQNQASCGKRAIILETRQHRLFCADPKEQWVKDAMQHLDRQAAALTRNGGTFEKQIGEVKPRTTPAAGGMDESVVLEPEATGESSSLEPTPSSQEAQRALGTSPELPTGVTGSSGTRLPPTPKAQDGGPVGTELFRVPPVSTAATWQSSAPHQPGPSLWAEAKTSEAPSTQDPSTQASTASSPAPEENAPSEGQRVWGQGQSPRPENSLEREEMGPVPAHTDAFQDWGPGSMAHVSVVPVSSEGTPSREPVASGSWTPKAEEPIHATMDPQRLGVLITPVPDAQAATRRQAVGLLAFLGLLFCLGVAMFTYQSLQGCPRKMAGEMAEGLRYIPRSCGSNSYVLVPV
stimulation of calcium flux (agonist activity) [4]: dose-dependent stimulation of calcium flux
